Data: patent publication US20250171434A1, “SEC61 INHIBITORS AND USE THEREOF” (KEZAR LIFE SCIENCES, INC., priority 2022, published 2025)

How the values were obtained:
[1] = test system: multiple myeloma cell line U266B1; experiment: U266 Cell Viability Assay; assay type: cell-based; conditions: Homo sapiens, U-266; U266B1 cells, 48 hours, Celltiter-Glo; read-out: 48 hr U266 Viability Celltiter-Glo: Mean EC50
Method in brief: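 After growth in serum-supplemented RPMI 1640, cells received serially diluted compound in DMSO/media and were kept 48 hours before a CellTiter-Glo luminescence readout.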

[2] = test system: PD1-ss+10aa/Gaussia Luciferase; experiment: Dox-Induced PD1-ss-Gluc Assay; assay type: cell-based; conditions: Flp-In 293 T-REx cells, 24 hours with doxycycline; Table 1; read-out: 24 hr Dox Inducible PD1ssGluc 293FRT/TO: Mean IC50
Method in brief: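 Gaussia luciferase fused downstream of the PD1 signal peptide plus 10 residues was expressed on doxycycline induction in stably transfected Flp-In 293 T-REx cells. Compounds were added with doxycycline and incubated at 37 °C, 5% CO2.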

[3] = Liver Microsome Stability Assay, monkey; assay type: in vitro ADME; conditions: monkey liver microsomes 1.0 mg/mL, 1.0 uM compound, 37° C., 1 mM NADPH
Method in brief: (§1)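 Stability was judged from samples quenched at 0 and 30 minutes after incubating 1.0 uM compound with 1.0 mg/mL liver microsomes at 37° C, plus or minus 1 mM NADPH, in 0.1 M potassium phosphate containing 0.4% DMSO.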

[4] = Liver Microsome Stability Assay, mouse; assay type: in vitro ADME; conditions: mouse liver microsomes 1.0 mg/mL, 1.0 uM compound, 37° C., 1 mM NADPH
Method in brief: as §1

[5] = test system: IL-2-FL/Gaussia Luciferase; experiment: Dox Inducible IL2-FL-Gluc Assay; assay type: cell-based; conditions: Table 1; for IC50: Flp-In 293 T-REx cells, 24 hours with doxycycline, read-out: 24 hr Dox Inducible IL2FLGluc 293FRT/TO: Mean IC50; for 24 hr Dox Inducible IL2FLGluc 293FRT/TO: IL2/PD1: ratio of IC50s IL2/PD1
Method in brief: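 A hygromycin- and blasticidin-resistant 293 T-REx clone carrying inducible IL-2–Gaussia luciferase (full-length IL-2, residues 1-153) serves as the cell system. After overnight plating, the cells get test compounds together with doxycycline in DMSO/media and are incubated at 37° C, 5% CO2.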

[6] = test system: multiple myeloma cell line NCI-H929; experiment: H929 Cell Viability Assay; assay type: cell-based, human; conditions: Homo sapiens; NCI-H929 cells, 48 hours, Celltiter-Glo; read-out: 48 hr H929 Viability Celltiter-Glo: Mean EC50
Method in brief: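 A 48-hour compound treatment of cells in 10% FBS RPMI medium was followed by luciferase-based viability quantification.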

CD47(ss + 10)Gluc = experiment: Dox-Induced CD47-ss-Gluc Assay; assay type: cell-based; conditions: Flp-In 293 T-REx cells, 24 hours with doxycycline; Table 1; read-out: 24 hr Dox Inducible CD47(ss + 10)Gluc 293FRT/TO: Mean IC50
[7] = Liver Microsome Stability Assay, human; assay type: in vitro ADME; conditions: human liver microsomes 1.0 mg/mL, 1.0 uM compound, 37° C., 1 mM NADPH
Method in brief: as §1

[8] = Liver Microsome Stability Assay, rat; assay type: in vitro ADME; conditions: rat liver microsomes 1.0 mg/mL, 1.0 uM compound, 37° C., 1 mM NADPH
Method in brief: as §1

[9] = test system: IL6R-ss+10aa/Gaussia Luciferase; experiment: Dox-induced IL-6R-ss-Gluc Assay; assay type: cell-based; conditions: Table 1; for IC50: Flp-In 293 T-REx cells, 24 hours with doxycycline, read-out: 24hr Dox Inducible IL6R(ss + 10)Gluc 293FRT/TO: Mean IC50; for 24hr Dox Inducible IL6R(ss + 10)Gluc 293FRT/TO: IL6R/PD1: ratio of IC50s IL6R/PD1
Method in brief: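 Flp-In 293 T-REx cells stably carrying a doxycycline-inducible IL6R signal sequence+10 aa fused to Gaussia luciferase. Cells plated the day before; compound dilutions added in DMSO/media containing doxycycline and incubated at 37 °C, 5% CO2.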

Row | EC50 [1] [µM] | IC50 [2] [µM] | Liver Microsome Stability (Multiple Species): Monkey - % Remaining after 30 min w/ NADPH (%) [3] [%] | Liver Microsome Stability (Multiple Species): Mouse - % Remaining after 30 min w/ NADPH (%) [4] [%] | IC50 [5] [µM] | EC50 [6] [µM] | IC50 (CD47(ss + 10)Gluc) [µM] | Liver Microsome Stability (Multiple Species): Human - % Remaining after 30 min w/ NADPH (%) [7] [%] | Liver Microsome Stability (Multiple Species): Rat - % Remaining after 30 min w/ NADPH (%) [8] [%] | IC50 [9] [µM] | SMILES | 24 hr Dox Inducible IL2FLGluc 293FRT/TO: IL2/PD1 [5] | 24hr Dox Inducible IL6R(ss + 10)Gluc 293FRT/TO: IL6R/PD1 [9]
1 | > 25 | 0.034 | 9 | 69 | > 25 | > 25 | 5.53 | 16 | 33 | > 25 | [2H]C([2H])([2H])Oc1cc(C(=O)Nc2nc(/C=C/c3ncn(C4CC4)c3Cl)cs2)n(Cc2ccnc(F)c2F)c1 [Compound A22, (E)-N-(4-(2-(5-chloro-1-cyclopropyl-1H-imidazol-4-yl)vinyl)thiazol-2-yl)-1-((2,3-difluoropyridin-4-yl)methyl)-4-(methoxy-d3)-1H-pyrrole-2-carboxamide] | >740 | >741
2 | > 25 | 0.037 | 8 | 55 | > 25 | > 25 | > 25 | 20 | 31 | > 25 | Cc1c(Cn2cc(OC(F)F)cc2C(=O)Nc2nc(/C=C/c3ncn(C4CC4)c3Cl)cs2)ccnc1F [Compound A23, (E)-N-(4-(2-(5-chloro-1-cyclopropyl-1H-imidazol-4-yl)vinyl)thiazol-2-yl)-4-(difluoromethoxy)-1-((2-fluoro-3-methylpyridin-4-yl)methyl)-1H-pyrrole-2-carboxamide] | >540 | >680
3 | > 25 | 0.008 | 12 | 77 | 11.5 | > 25 | 5.53 | 20 | 30 | 9.97 | Cc1cnc(F)cc1Cn1cc(OC(F)F)cc1C(=O)Nc1nc(/C=C/c2ncn(C3CC3)c2Cl)cs1 [Compound A24, (E)-N-(4-(2-(5-chloro-1-cyclopropyl-1H-imidazol-4-yl)vinyl)thiazol-2-yl)-4-(difluoromethoxy)-1-((2-fluoro-5-methylpyridin-4-yl)methyl)-1H-pyrrole-2-carboxamide] | 1100.0 | 1283
4 | > 25 | 0.877 | 16 | 70 | > 25 | > 25 | > 25 | 29 | 40 | > 25 | Cc1cnc(F)c(C)c1Cn1cc(OC(F)F)cc1C(=O)Nc1nc(/C=C/c2ncn(C3CC3)c2Cl)cs1 [Compound A26, (E)-N-(4-(2-(5-chloro-1-cyclopropyl-1H-imidazol-4-yl)vinyl)thiazol-2-yl)-4-(difluoromethoxy)-1-((2-fluoro-3,5-dimethylpyridin-4-yl)methyl)-1H-pyrrole-2-carboxamide] | >22 | 28
5 | > 25 | 0.009 | 47 | 70 | 3.09 | 17.8 | 2.55 | 78 | 2 | 2.11 | N#Cc1c(/C=C/c2csc(NC(=O)c3cc(OC(F)F)cn3Cc3ccnc(F)c3)n2)ncn1C1CC1 [Compound A27, (E)-N-(4-(2-(5-cyano-1-cyclopropyl-1H-imidazol-4-yl)vinyl)thiazol-2-yl)-4-(difluoromethoxy)-1-((2-fluoropyridin-4-yl)methyl)-1H-pyrrole-2-carboxamide] | 340.0 | 235
6 | 15.5 | 0.022 | 9 | 67 | 1.51 | > 25 | 1.4 | 22 | 2 | 1.49 | N#Cc1c(/C=C/c2csc(NC(=O)c3cc(Cl)cn3Cc3ccnc(F)c3)n2)ncn1C1CC1 [Compound A28, (E)-4-chloro-N-(4-(2-(5-cyano-1-cyclopropyl-1H-imidazol-4-yl)vinyl)thiazol-2-yl)-1-((2-fluoropyridin-4-yl)methyl)-1H-pyrrole-2-carboxamide] | 69.0 | 68
7 | > 25 | 0.048 | 43 | 21 | > 25 | > 25 | > 25 | 51 | 1 | > 25 | O=C(Nc1nc(/C=C/c2ncn(C3CC3)c2Cl)cs1)c1cc(C(F)F)cn1Cc1ccnc(F)c1 [Compound A29, (E)-N-(4-(2-(5-chloro-1-cyclopropyl-1H-imidazol-4-yl)vinyl)thiazol-2-yl)-4-(difluoromethyl)-1-((2-fluoropyridin-4-yl)methyl)-1H-pyrrole-2-carboxamide] | >650 | >517
8 | > 25 | 0.007 | 70 | 44 | 2.13 | > 25 | 2.39 | 63 | <1 | 2.16 | O=C(Nc1nc(/C=C/c2ncn(C3CC3)c2Cl)cs1)c1cc(C(F)(F)F)cn1Cc1ccnc(F)c1 [Compound A30, (E)-N-(4-(2-(5-chloro-1-cyclopropyl-1H-imidazol-4-yl)vinyl)thiazol-2-yl)-1-((2-fluoropyridin-4-yl)methyl)-4-(trifluoromethyl)-1H-pyrrole-2-carboxamide] | 290.0 | 292
